These results are taken from ChEMBL document CHEMBL1133343, “Synthesis and antifungal activity of a ferrocene-fluconazole analogue” (2000).

The term MIC80 denotes an inhibitory concentration at the 80% level, which refers to growth in some studies and to a panel of isolates in others.

Assay type in all cases: functional
One experiment deals with Candida parapsilosis. Nature of the experiment: Compound was tested for antifungal activity against growth of two strains Candida parapsilosis. The settings on record: Lodderomyces parapsilosis.
Experiment [1] has as its system Candida albicans. The experiment can be described thus: Compound was tested for antifungal activity against growth of three strains of Candida albicans.
For another experiment, the system named is Pichia kudriavzevii. The experiment can be described thus: Compound was tested for antifungal activity against growth of three strains Candida krusei.
The test system of experiment [2] is Candida albicans. Nature of the experiment: Compound was tested for antifungal activity against growth of two strains Candida glabrata.

For `OC(Cn1cncn1)(Cn1cncn1)c1ccc(F)cc1F` [FLUCONAZOLE], the MIC80 is below 12 µg/mL against Candida parapsilosis, below 1.5 µg/mL in the experiment with Candida albicans [1], above 48 µg/mL in the experiment on Pichia kudriavzevii and above 48 µg/mL against Candida albicans [2].
